Measurements published in publication PMC3824154 (Angewandte Chemie (International ed. in English), 2013).

Molecular target: T1, MBP-RebF (Lentzea aerocolonigenes, UniProt Q8KI76)
T1 sequence (Q8KI76 1-170): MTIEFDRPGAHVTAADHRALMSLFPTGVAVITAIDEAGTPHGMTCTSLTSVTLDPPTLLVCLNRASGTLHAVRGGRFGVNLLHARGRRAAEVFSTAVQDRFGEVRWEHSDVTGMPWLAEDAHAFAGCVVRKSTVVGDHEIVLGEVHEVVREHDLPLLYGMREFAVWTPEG
Experiment: FAD reduction activity
Type: biochemical

| SMILES | FAD reduction activity (turnover) (NADH as electron donor) | FAD reduction activity (turnover) (FAD as electron acceptor) |
| --- | --- | --- |
| Cc1cc2nc3c(=O)[nH]c(=O)nc-3n(C[C@H](O)[C@H](O)[C@H](O)COP(=O)(O)OP(=O)(O)OC[C@H]3O[C@@H](n4cnc5c(N)ncnc54)[C@H](O)[C@@H]3O)c2cc1C [FAD] | retained high activity for the NAD-dependent reduction of FAD to FADH2 | – |
| NC(=O)C1=CN([C@@H]2O[C@H](COP(=O)(O)OP(=O)(O)OC[C@H]3O[C@@H](n4cnc5c(N)ncnc54)[C@H](O)[C@@H]3O)[C@@H](O)[C@H]2O)C=CC1 [NADH] | – | MBP-RebF, which uses NADH to reduce FAD to FADH2 |
